In one test the target is prohibitin 2 (PHB2) (Homo sapiens, UniProt Q99623). Put plainly: SPR on purified recombinant PHB2 […]-194; DSF shift […] °C; DARTS in cells. The class given is binding. Further details: PHB2 1–194 (6× His tag).
Another test has as its target T1, LOK(h) (Homo sapiens, UniProt O94804).
T1 construct: gene STK10
Put plainly: biochemical. Further details: Eurofins recombinant human kinase profiling, remaining kinase activity as % of control, 10 uM ATP. Particulars: ATP 10 uM; read-out: %Ctrl@10 μM. The method, boiled down:
(§1)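 Recombinant human kinases, 401 in total, screened using an outsourced kinase profiling assay.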

For a further test, the target named is VRK1(h) (Homo sapiens, UniProt Q99986). Put plainly: biochemical. Further details: Eurofins recombinant human kinase profiling, remaining kinase activity as % of control, 10 uM ATP. The conditions noted are these: ATP 10 uM; read-out: %Ctrl@10 μM. The method, boiled down:
as §1

The target in a further test is TTBK2(h) (Homo sapiens, UniProt Q6IQ55). Put plainly: biochemical. Further details: Eurofins recombinant human kinase profiling, remaining kinase activity as % of control, 10 uM ATP. The conditions noted are these: ATP 10 uM; read-out: %Ctrl@10 μM. The method, boiled down:
as §1

In another test the target is T2, CRIK(h) (Homo sapiens, UniProt O14578).
T2 construct: gene CIT
Put plainly: biochemical. Further details: Eurofins recombinant human kinase profiling, remaining kinase activity as % of control, 10 uM ATP. The conditions noted are these: ATP 10 uM; read-out: %Ctrl@10 μM. The method, boiled down:
as §1

The next test concerns the target DYRK3(h) (Homo sapiens, UniProt O43781). Put plainly: biochemical. Further details: Eurofins recombinant human kinase profiling, remaining kinase activity as % of control, 10 uM ATP. The conditions noted are these: ATP 10 uM; read-out: %Ctrl@10 μM. The method, boiled down: as §1
Another test addresses T3, PKBα(h) (Homo sapiens, UniProt P31749).
T3 construct: gene AKT1
Put plainly: biochemical. Further details: Eurofins recombinant human kinase profiling, remaining kinase activity as % of control, 10 uM ATP. Particulars: ATP 10 uM; read-out: %Ctrl@10 μM. The method, boiled down: as §1

The target in the next test is EGFR(T790M)(h) (Homo sapiens, UniProt P00533, T790M). Put plainly: biochemical. Further details: Eurofins recombinant human kinase profiling, remaining kinase activity as % of control, 10 uM ATP. The conditions noted are these: ATP 10 uM; read-out: %Ctrl@10 μM. The method, boiled down:
as §1

Another test has as its target T4, Abl (Q252H) (h) (Homo sapiens, UniProt P00519, Q252H).
T4 construct: gene ABL1
Put plainly: biochemical. The conditions noted are these: ATP 10 uM; read-out: %Ctrl@10 μM. Further details: Eurofins recombinant human kinase profiling, remaining kinase activity as % of control, 10 uM ATP. The method, boiled down:
as §1

For another test, the target named is CDKL2(h) (Homo sapiens, UniProt Q92772). Put plainly: biochemical. Further details: Eurofins recombinant human kinase profiling, remaining kinase activity as % of control, 10 uM ATP. The conditions noted are these: ATP 10 uM; read-out: %Ctrl@10 μM. The method, boiled down: as §1
A further test deals with T5, PKCμ(h) (Homo sapiens, UniProt Q15139).
T5 construct: gene PRKD1
T5 sequence (Q15139 whole entry): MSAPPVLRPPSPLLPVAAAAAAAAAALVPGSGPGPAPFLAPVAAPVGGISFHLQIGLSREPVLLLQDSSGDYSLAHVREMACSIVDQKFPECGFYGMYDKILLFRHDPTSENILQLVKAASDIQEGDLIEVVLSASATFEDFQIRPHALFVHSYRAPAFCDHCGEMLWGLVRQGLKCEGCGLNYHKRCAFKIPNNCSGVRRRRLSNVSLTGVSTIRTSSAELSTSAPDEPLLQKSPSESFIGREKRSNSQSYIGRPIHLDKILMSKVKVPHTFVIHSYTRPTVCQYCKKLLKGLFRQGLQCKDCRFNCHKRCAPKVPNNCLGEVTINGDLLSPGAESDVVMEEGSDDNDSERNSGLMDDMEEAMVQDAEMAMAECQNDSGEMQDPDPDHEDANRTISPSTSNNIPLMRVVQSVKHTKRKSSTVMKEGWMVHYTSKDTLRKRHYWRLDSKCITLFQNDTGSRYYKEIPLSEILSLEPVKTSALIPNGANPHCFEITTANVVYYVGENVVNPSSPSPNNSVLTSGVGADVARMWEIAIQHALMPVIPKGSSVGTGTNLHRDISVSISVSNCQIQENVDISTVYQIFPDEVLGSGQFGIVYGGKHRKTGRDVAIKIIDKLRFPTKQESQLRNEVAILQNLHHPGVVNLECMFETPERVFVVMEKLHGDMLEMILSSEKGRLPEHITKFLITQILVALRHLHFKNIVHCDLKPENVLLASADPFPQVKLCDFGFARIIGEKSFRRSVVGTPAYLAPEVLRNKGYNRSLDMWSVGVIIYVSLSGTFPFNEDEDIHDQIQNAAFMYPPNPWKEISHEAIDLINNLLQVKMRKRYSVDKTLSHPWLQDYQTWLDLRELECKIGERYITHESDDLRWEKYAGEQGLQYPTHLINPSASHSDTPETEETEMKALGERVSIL
Put plainly: biochemical. The conditions noted are these: ATP 10 uM; read-out: %Ctrl@10 μM. Further details: Eurofins recombinant human kinase profiling, remaining kinase activity as % of control, 10 uM ATP. The method, boiled down: as §1

A further test concerns the target T6, Abl(Y253F)(h) (Homo sapiens, UniProt P00519, Y253F).
T6 construct: gene ABL1
Put plainly: biochemical. Further details: Eurofins recombinant human kinase profiling, remaining kinase activity as % of control, 10 uM ATP. The conditions noted are these: ATP 10 uM; read-out: %Ctrl@10 μM. The method, boiled down:
as §1

The target of the next test is MARK3(h) (Homo sapiens, UniProt P27448). Put plainly: biochemical. The conditions noted are these: ATP 10 uM; read-out: %Ctrl@10 μM. Further details: Eurofins recombinant human kinase profiling, remaining kinase activity as % of control, 10 uM ATP. The method, boiled down:
as §1

The next test deals with T7, MLK1(h) (Homo sapiens, UniProt P80192).
T7 construct: gene MAP3K9
Put plainly: biochemical. Further details: Eurofins recombinant human kinase profiling, remaining kinase activity as % of control, 10 uM ATP. Particulars: ATP 10 uM; read-out: %Ctrl@10 μM. The method, boiled down:
as §1

The target in another test is Plk4(h) (Homo sapiens, UniProt O00444). Put plainly: biochemical. Further details: Eurofins recombinant human kinase profiling, remaining kinase activity as % of control, 10 uM ATP. Particulars: ATP 10 uM; read-out: %Ctrl@10 μM. The method, boiled down: as §1
In the next test the target is TGFBR2(h) (Homo sapiens, UniProt P37173). Put plainly: biochemical. Further details: Eurofins recombinant human kinase profiling, remaining kinase activity as % of control, 10 uM ATP. The conditions noted are these: ATP 10 uM; read-out: %Ctrl@10 μM. The method, boiled down:
as §1

The target in a further test is T8, eEF-2K(h) (Homo sapiens, UniProt O00418).
T8 construct: gene EEF2K
Put plainly: biochemical. Further details: Eurofins recombinant human kinase profiling, remaining kinase activity as % of control, 10 uM ATP. Particulars: ATP 10 uM; read-out: %Ctrl@10 μM. The method, boiled down: as §1

Another test deals with NEK9(h) (Homo sapiens, UniProt Q8TD19). Put plainly: biochemical. Further details: Eurofins recombinant human kinase profiling, remaining kinase activity as % of control, 10 uM ATP. The conditions noted are these: ATP 10 uM; read-out: %Ctrl@10 μM. The method, boiled down: as §1
A further test addresses T9, TSSK1(h) (Homo sapiens, UniProt Q9BXA7).
T9 construct: gene TSSK1B
Put plainly: biochemical. Further details: Eurofins recombinant human kinase profiling, remaining kinase activity as % of control, 10 uM ATP. The conditions noted are these: ATP 10 uM; read-out: %Ctrl@10 μM. The method, boiled down: as §1

The target of a further test is CLK2(h) (Homo sapiens, UniProt P49760). Put plainly: biochemical. Further details: Eurofins recombinant human kinase profiling, remaining kinase activity as % of control, 10 uM ATP. Particulars: ATP 10 uM; read-out: %Ctrl@10 μM. The method, boiled down: as §1

These results are taken from article PMC9719519, “Non-classical ferroptosis inhibition by a small molecule targeting PHB2” (Nature Communications, 2022).

Sequence of EGFR(T790M)(h) (P00533 whole entry T790M): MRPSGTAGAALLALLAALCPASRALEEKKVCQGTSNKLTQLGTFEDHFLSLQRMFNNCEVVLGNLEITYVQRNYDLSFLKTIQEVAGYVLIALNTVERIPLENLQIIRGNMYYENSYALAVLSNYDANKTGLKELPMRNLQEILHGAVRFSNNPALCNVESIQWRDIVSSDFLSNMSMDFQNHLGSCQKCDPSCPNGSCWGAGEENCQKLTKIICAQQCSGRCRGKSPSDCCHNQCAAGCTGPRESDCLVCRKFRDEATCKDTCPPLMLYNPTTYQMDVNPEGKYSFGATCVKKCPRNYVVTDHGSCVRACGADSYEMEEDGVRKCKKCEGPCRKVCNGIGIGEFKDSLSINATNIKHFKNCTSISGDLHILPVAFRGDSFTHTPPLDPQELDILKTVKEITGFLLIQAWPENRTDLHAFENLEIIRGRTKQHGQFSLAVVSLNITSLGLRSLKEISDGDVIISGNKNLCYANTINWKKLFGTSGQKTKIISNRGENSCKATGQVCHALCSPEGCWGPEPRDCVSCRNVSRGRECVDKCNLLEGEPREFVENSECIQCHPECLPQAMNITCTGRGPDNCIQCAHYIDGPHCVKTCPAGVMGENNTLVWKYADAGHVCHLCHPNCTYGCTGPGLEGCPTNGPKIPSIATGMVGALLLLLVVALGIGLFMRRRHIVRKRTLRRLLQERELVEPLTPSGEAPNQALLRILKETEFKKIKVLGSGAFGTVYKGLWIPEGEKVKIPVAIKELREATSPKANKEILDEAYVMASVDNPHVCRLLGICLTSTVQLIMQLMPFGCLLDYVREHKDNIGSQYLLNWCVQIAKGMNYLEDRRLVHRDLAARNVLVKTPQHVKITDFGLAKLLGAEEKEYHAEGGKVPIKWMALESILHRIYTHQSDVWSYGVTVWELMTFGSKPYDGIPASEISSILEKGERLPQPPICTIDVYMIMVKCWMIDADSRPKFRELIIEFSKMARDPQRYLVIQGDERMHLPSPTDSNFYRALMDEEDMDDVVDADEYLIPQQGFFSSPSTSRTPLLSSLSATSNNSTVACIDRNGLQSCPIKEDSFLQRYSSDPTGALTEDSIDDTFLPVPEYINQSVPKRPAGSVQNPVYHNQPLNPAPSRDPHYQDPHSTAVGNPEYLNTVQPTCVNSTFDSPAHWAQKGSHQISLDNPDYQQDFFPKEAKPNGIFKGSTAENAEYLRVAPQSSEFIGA
T1 sequence (O94804 whole entry): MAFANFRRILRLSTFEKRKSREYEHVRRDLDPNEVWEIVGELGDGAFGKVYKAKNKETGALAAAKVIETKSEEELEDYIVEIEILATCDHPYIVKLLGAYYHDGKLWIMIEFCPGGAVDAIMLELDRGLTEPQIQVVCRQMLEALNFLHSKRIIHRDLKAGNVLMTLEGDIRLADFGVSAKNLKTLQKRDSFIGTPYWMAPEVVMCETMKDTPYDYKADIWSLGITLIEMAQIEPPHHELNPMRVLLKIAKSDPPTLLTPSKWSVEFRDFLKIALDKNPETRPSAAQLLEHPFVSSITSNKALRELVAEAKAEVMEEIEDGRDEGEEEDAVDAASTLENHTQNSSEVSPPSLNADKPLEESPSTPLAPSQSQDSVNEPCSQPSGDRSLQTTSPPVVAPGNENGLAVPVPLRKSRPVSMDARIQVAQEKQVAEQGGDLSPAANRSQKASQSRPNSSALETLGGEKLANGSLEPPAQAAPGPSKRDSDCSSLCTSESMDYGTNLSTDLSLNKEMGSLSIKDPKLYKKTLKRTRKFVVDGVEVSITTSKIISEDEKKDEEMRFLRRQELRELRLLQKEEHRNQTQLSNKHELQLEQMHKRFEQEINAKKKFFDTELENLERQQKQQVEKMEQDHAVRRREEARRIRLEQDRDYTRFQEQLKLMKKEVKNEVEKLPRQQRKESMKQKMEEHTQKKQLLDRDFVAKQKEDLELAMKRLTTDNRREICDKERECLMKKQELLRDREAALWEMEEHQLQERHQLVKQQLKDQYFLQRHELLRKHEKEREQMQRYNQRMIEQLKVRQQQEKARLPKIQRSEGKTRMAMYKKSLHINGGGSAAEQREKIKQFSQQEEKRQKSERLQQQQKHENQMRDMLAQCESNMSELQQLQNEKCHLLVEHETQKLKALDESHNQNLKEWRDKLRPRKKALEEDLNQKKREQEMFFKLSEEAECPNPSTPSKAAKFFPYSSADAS
Sequence of TTBK2(h) (Q6IQ55 whole entry): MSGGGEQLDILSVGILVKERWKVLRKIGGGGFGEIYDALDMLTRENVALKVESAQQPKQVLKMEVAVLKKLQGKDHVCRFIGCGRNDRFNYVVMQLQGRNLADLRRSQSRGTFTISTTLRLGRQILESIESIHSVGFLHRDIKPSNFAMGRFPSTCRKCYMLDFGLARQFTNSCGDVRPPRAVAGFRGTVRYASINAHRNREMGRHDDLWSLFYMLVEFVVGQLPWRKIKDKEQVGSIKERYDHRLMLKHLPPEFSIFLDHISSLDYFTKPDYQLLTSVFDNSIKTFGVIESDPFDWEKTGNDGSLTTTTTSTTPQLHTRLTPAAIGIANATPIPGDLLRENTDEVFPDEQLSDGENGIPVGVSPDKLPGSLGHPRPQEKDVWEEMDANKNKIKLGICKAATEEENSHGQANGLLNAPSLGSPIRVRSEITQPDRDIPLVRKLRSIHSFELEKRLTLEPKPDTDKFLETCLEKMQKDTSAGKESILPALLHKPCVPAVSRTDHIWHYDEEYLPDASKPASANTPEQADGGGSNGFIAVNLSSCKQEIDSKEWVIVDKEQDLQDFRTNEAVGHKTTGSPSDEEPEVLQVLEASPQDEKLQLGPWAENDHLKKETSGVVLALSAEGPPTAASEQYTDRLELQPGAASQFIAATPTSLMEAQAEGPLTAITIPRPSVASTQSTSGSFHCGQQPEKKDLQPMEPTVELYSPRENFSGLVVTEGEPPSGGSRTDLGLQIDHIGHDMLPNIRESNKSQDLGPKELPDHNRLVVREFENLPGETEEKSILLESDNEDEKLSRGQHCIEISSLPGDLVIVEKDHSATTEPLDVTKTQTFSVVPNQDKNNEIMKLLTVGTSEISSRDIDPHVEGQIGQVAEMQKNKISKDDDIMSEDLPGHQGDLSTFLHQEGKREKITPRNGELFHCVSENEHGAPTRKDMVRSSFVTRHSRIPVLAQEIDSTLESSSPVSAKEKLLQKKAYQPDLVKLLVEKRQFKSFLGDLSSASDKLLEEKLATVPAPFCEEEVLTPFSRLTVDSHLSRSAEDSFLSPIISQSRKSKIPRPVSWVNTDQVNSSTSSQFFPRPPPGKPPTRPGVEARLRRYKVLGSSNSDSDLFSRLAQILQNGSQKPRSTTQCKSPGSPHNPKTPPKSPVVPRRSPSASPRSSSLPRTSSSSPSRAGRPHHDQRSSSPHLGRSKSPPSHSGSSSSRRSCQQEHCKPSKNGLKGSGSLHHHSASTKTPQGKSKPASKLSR
Sequence of DYRK3(h) (O43781 whole entry): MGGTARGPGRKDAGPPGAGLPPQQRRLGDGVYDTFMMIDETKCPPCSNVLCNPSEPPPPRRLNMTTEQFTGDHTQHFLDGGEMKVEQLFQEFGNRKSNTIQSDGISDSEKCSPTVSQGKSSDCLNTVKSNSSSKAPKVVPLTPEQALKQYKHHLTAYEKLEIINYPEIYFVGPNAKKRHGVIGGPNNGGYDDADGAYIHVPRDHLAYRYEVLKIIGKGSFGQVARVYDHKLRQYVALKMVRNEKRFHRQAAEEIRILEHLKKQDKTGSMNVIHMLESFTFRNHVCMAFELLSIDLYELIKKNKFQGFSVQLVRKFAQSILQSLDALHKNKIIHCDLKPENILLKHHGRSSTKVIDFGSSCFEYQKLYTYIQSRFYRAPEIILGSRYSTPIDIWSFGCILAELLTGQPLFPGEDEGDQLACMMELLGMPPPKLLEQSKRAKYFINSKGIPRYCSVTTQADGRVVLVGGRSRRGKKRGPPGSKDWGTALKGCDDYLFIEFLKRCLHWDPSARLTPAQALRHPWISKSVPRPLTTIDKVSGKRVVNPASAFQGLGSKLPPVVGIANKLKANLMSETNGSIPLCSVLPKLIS

For orientation: Kd means the concentration at which binding is half-saturated. As for `C1=C(c2nc(-c3cnn(C4CCNCC4)c3)cn3cc(-c4ccccc4)nc23)CCOC1` [YL-939], the Kd at prohibitin 2 (PHB2) came out at 3.43 µM. In addition, the remaining activity at 10 µM at LOK(h) came to 95%; on VRK1(h) it was 87%; at TTBK2(h), 87%; at CRIK(h), 101%; at DYRK3(h), 77%; on PKBα(h) it was 68%. The remaining activity at 10 µM on EGFR(T790M)(h) stood at 138%; at Abl (Q252H) (h) it was 122%; at CDKL2(h) it was 74%; on PKCμ(h), 77%; at Abl(Y253F)(h), 123%; at MARK3(h), 80%. The remaining activity at 10 µM on MLK1(h) was 86%; on Plk4(h) it was 88%; on TGFBR2(h), 97%; at eEF-2K(h) it was 93%; at NEK9(h) it was 99%; at TSSK1(h), 80%. Further, the remaining activity at 10 µM at CLK2(h) was found to be 71%.
